One data set relates to Mäusen. Briefly: Apomorphine antagonism: inhibition of apomorphine-induced climbing in mice. It is filed as in vivo. As to conditions: compound given 30 min (i.p.) or 60 min (p.o.) before apomorphine. Here is the method:
Die Wirkung der Verbindungen der Formeln la und Ib als Apomorphin Antagonisten wird an Mäusen getestet. Hierzu wird zunächst Apomorphin als 1 %ige Lösung (Verdünnungsmittel:Tylose, z.B. Methocel, Hoechst AG, Frankfurt, Deutschland) einmalig […] injiziert. Die Dosis ist so gewählt, daß sie bei 95 % der Mäuse für ca. 30 Minuten eine anhaltende Klettertätigkeit auslöst (1,5 mg Apomorphin/kg Maus; subcutane Injektion). Tiere, die noch vor der Apomorphingabe eine konstante Klettertätigkeit aufweisen, werden nicht im Test berücksichtigt. Pseurotin F1 oder F2 wird 30 bzw. 60 Min. vor Apomorphin appliziert (i.p. bzw. p.o.). Es wird viermal abgelesen: unmittelbar vor sowie 10, 20 und 30 Min nach Apomorphin-Injektion. Dabei wird das Kletterverhalten pro Maus beurteilt:
Testkriterium ist, ob eine Hemmung des durch Apomorphin verursachten Kletterns eintritt.

The nature of data set [1]: Stability in the solid state and in solution. It is filed as physicochemical. As to conditions: solid state and solutions in the pH range between 3 and 8, in particular 5 and 7. From the text: Die Verbindungen der Formeln la und Ib sind im festen Zustand und in Lösungen im pH-Bereich zwischen 3 und 8, insbesondere 5 und 7, stabil und lassen sich damit in übliche galenische Zubereitungen einarbeiten.

Data set [2] can be described thus: Solubility in organic solvents. It is filed as physicochemical. The following applies: in CH2C12, CHCl3, Essigsäureethylester, Aceton, Ethanol and Isopropanol; isolated as amorphous solid. An excerpt: Die Pseurotine F1 /F2 werden als amorpher Feststoff isoliert und sind z.B. löslich in CH2C12, CHCl3, Essigsäureethylester, Aceton, Ethanol und Isopropanol. • FAB-MS: m/e = 418 (37 %, [M + H]^+), 400 (12 %) 382 (14 %) • Pseurotin F1: Rf = 0,29; Ethylacetat-H/Heptan (2 : 1) • Pseurotin F2: Rf = 0,20; Ethylacetat-H/Heptan (2:1) (dünnschichtchromatographisch aufgetrennt) Molmasse: 417, 12 (C21 H23NO8)

[3] abbreviates: 10 min after apomorphine injection (1,5 mg/kg, s.c.), observed in the majority of treated mice.
Where [4] appears, read: 20 min after apomorphine injection (1,5 mg/kg, s.c.), observed in nearly all animals.

This is an account of results in patent publication EP0546474A1, “Pseurotin F1/F2, new metabolites from Aspergillus fumigatus, process for their preparation and their use as apomorphine antagonists” (HOECHST AKTIENGESELLSCHAFT, priority 1991, dated 1993).

With `CC/C=C\[C@H](O)[C@H](O)C1=C(C)C(=O)[C@]2(O1)C(=O)N[C@@](O)(C(=O)c1ccccc1)[C@@H]2O` [Pseurotin F2], the “Kletterverhalten pro Maus (Hemmung des durch Apomorphin verursachten Kletterns)” value with Mäusen (setting [3]) was “nur noch 1 oder 2 Pfoten an der Wand”; in the data set with Mäusen (setting [4]) it was “deutliche Symptome in Form der Kletterhemmung (4 Pfoten am Boden)”. Moreover, the Stabilität entry in data set [1] is “stabil”. Moreover, the Löslichkeit result in data set [2] is reported as “löslich”.

As to `CC/C=C\[C@H](O)[C@H](O)C1=C(C)C(=O)[C@]2(O1)C(=O)N[C@](O)(C(=O)c1ccccc1)[C@@H]2O` [Pseurotin F1], the results for the “Kletterverhalten pro Maus (Hemmung des durch Apomorphin verursachten Kletterns)” value in the data set with Mäusen (setting [3]) and in the data set on Mäusen (setting [4]) were “nur noch 1 oder 2 Pfoten an der Wand” and “deutliche Symptome in Form der Kletterhemmung (4 Pfoten am Boden)”, respectively. The Stabilität result in data set [1] is “stabil”. Besides, the Löslichkeit result in data set [2] is “löslich”.
